In patent US20250002526A1, “PHARMACEUTICAL COMPOSITION HAVING ANTI-CANCER IMMUNOSTIMULATING EFFECT AND/OR IMMUNE CHECKPOINT INHIBITION POTENTIATING EFFECT” (KYUSHU UNIVERSITY, NATIONAL UNIVERSITY CORPORATION, priority 2021, published 2025):
Counter-ions that a name gives are not always drawn. Like-named read-outs stand apart in the source and are kept apart here.

Test system: SULT2B1b-mediated CS production in E0771-SULT cells
Assay: CS production inhibitory effect in E0771-SULT cells (LC/MS/MS quantification of CS)
Type: cell-based, mouse
Conditions: for activity at 10 µM / activity at 20 µM / IC50 / activity at 1 µM: Mus musculus; for activity at 10 µM: relative to control (100%); for IC50: read-out: IC50 value (CS production); for activity at 1 µM: compound groups B-D
Protocol: CS in each human cancer tissue sample was quantified by a method described in NPL 2. To monitor the amounts of CS and/or oxysterol generated in E0771, 3LL, EG.7-OVA, and MC38 cells irrespective of the presence or absence of SULT2B1b expression, cells of each type were seeded in a 6-well plate at 5×10^5 cells/well, and the culture supernatant and cell pellet were collected after 24 hours. Subsequently, deuterium-labeled internal standard (IS) compounds (d7-CS [[…]] and d6-25-hydroxycholesterol) were added to fractions of the culture supernatant and cell pellet, each of which was subjected to extraction with 1 mL of extraction solvent (methanol/chloroform/water=5:2:2 [v/v/v]) to extract CS and oxysterol from the culture supernatant or cell pellet.
Each sample was vigorously mixed with a vortex for 1 minute, and then ultrasonicated for 5 minutes. Thereafter, the sample was centrifuged at 16,000×g and 4° C. for 5 minutes, and the supernatant (700 μl) was collected in a clean tube. Into this, 235 μl of chloroform and 155 μl of water were added and mixed, and the resultant was then subjected to vortexing followed by centrifugation to separate into an aqueous layer and an organic layer. Subsequently, 200 μl of the lowermost layer was dried under a nitrogen flow.
The dried sample was dissolved in 50 μl of methanol, and CS and oxysterol therein were quantified by liquid chromatography-tandem mass spectrometry (LC/MS/MS) with a triple quadrupole mass spectrometer (LCMS-8060; Shimadzu Corporation) equipped with an electrospray ionization (ESI) ion source in a multiple reaction monitoring (MRM) mode.
• Column: Inertsil ODS-4 (2.1×150 mm; particle size: 3 μm; GL Sciences Inc.) • Column temperature: 40° C. • Flow rate: 0.3 ml/min • Mobile phase: (A) water/acetonitrile (1:2, v/v) containing 5 mM ammonium acetate (B) Methanol/Isopropanol (1:19, v/v) Containing 5 mM Ammonium Acetate • Gradient curve: 0 min→22 min: (B) 0%→100%, • 22 min→27 min: (B) 100%, • 27 min→27.1 min: (B) 100%→0%, • 27.1 min→30 min: (B) 0% • Injection volume: 5 μl • Mass spectrometry mode: positive and negative ion modes • Electrospray voltage: 4 kV in positive ion mode, −3.5 kV in negative ion mode • Nebulizer gas flow rate: 3.0 L/min • Drying gas flow rate: 10.0 L/min • Desolvation temperature: 250° C. • Heat block temperature: 400° C. • Detector voltage: 2.16 kV • Used were MRM mode and 2 msec of dwell time per channel.
Absolute CS and oxysterol contents were calculated from calibration curves. MRM calibration curves were prepared with chromatographic peak areas for the analytes relative to peak areas for internal standards through three times of analysis for standard solutions.
The CS production effects of test compounds (compounds 1 to 19, 21, 23, 25, and 27 to 32) were evaluated with the mouse breast cancer cell line E0771 expressing SULT2B1b (E0771-SULT cells).
Specifically, as in the above description in experimental procedure (12), E0771-SULT cells were seeded in a 6-well plate at a proportion of 5×10^5 cells/well, and cultured in the presence or absence (control) of each test compound for 24 hours. After culturing, CS generated in E0771-SULT cells was quantified by LC/MS/MS according to the description in experimental procedure (12). The CS production capacity (% activity) of cells cultured in the presence of each test compound was evaluated from the percentage relative to the CS production level (control) (100%) in E0771-SULT cells cultured in the absence of the test compound, and the CS production inhibitory effect of the test compound was evaluated.

[1] = 24 h, read-out: CS production % activity at 10 μM, E0771-SULT cells, 24 hours, test compound 10 μM (Table 1)
[2] = 24 h, read-out: CS production % activity at 10 μM, E0771-SULT cells, 24 hours, third concentration column of Table 1, head again printed 10 μM
[3] = 24 h, read-out: CS production % activity at 20 μM, E0771-SULT cells, 24 hours, test compound 20 μM, relative to control without compound (100%)
[4] = 24 h, E0771-SULT cells, 24 hours, test compound 20 μM, relative to control without compound (100%), read-out: CS production % activity at 20 μM
[5] = 24 h, E0771-SULT cells, 24 hours, read-out: CS production % activity at 1 μM
[6] = E0771-SULT cells, 24 hours, test compound 20 μM, relative to control without compound (100%), read-out: CS production % activity at 20 μM
[7] = E0771-SULT cells, 24 hours, read-out: CS production % activity at 1 μM

CC(=O)C1=CC[C@H]2[C@@H]3CC=C4CC(OC(=O)CCN5CCOCC5)CC[C@]4(C)[C@H]3CC[C@]12C (stereo partly drawn) [Compound 15, (8R,9S,10R,13S,14S)-17-acetyl-10,13-dimethyl-2,3,4,7,8,9,10,11,12,13,14,15-dodecahydro-1H-cyclopenta[a]phenanthren-3-yl3-morpholinopropanoate]
activity at 10 µM [1]: 40.9%
activity at 10 µM [2]: 63%
activity at 20 µM [3]: 38.9%
IC50: 7.8 µM

CC1(C2CC[C@H]3[C@@H]4CC=C5C[C@@H](O)CC[C@]5(C)[C@H]4CC[C@]23C)CS1 (stereo partly drawn) [Compound 32, (3S,8S,9S,10R,13S,14S)-10,13-dimethyl-17-(2-methylthiiran-2-yl)-2,3,4,7,8,9,10,11,12,13,14,15,16,17-tetradecahydro-1H-cyclopenta[a]phenanthren-3-ol]
activity at 20 µM [4]: 54.8%
activity at 1 µM [5]: 49.7%
IC50 (E0771-SULT cells): 12.8 µM

C#CCOCCOCCOCCOCCOCCOCCNC(=O)CC[C@@H](C)[C@H]1CC[C@H]2[C@@H]3CC=C4C[C@@H](OS(=O)(=O)O)CC[C@]4(C)[C@H]3CC[C@]12C [Compound 27, (3S,8S,9S,10R,13R,14S,17R)-10,13-dimethyl-17-((R)-23-oxa-4,7,10,13,16,19-hexaoxa-22-azaheptacos-1-yn-26-yl)-2,3,4,7,8,9,10,11,12,13,14,15,16,17-tetradecahydro-1H-cyclopenta[a]phenanthren-3-yl sulfate]
CS production % activity at 20 μM (E0771-SULT cells, 24 hours, test compound 20 μM, relative to control without compound (100%)): 59.0%

COC(=O)CC[C@@H](C)[C@H]1CC[C@H]2[C@@H]3CC=C4C[C@@H](OC)CC[C@]4(C)[C@H]3CC[C@]12C [Compound 5, methyl (R)-4-((3S,8S,9S,10R,13R,14S,17R)-3-methoxy-10,13-dimethyl-2,3,4,7,8,9,10,11,12,13,14,15,16,17-tetradecahydro-1H-cyclopenta[a]phenanthren-17-yl)pentanoate]
activity at 20 µM [4]: 92.3%

C#C[C@]1(O)CC[C@H]2[C@@H]3CC=C4C[C@@H](O)CC[C@]4(C)[C@H]3CC[C@@]21C [Compound 29, (3S,8R,9S,10R,13S,14S,17R)-17-ethynyl-10,13-dimethyl-2,3,4,7,8,9,10,11,12,13,14,15,16,17-tetradecahydro-1H-cyclopenta[a]phenanthrene-3,17-diol]
activity at 1 µM (24 h, read-out: CS production % activity at 1 μM, E0771-SULT cells, 24 hours): 50.1%
activity at 20 µM [3]: 45%
IC50: 11.8 µM

C[C@H](CCC(=O)O)[C@H]1CC[C@H]2[C@@H]3CC[C@@H]4C[C@H](O)CC[C@]4(C)[C@H]3CC[C@]12C [Compound 14, (4R)-4-[(3R,5R,8R,9S,10S,13R,14S,17R)-3-hydroxy-10,13-dimethyl-2,3,4,5,6,7,8,9,11,12,14,15,16,17-tetradecahydro-1H-cyclopenta[a]phenanthren-17-yl]pentanoic acid]
activity at 20 µM [6]: 31.5%
activity at 10 µM (E0771-SULT cells, 24 hours, third concentration column of Table 1, head again printed 10 μM, read-out: CS production % activity at 10 μM): 62%
IC50 (E0771-SULT cells): 7.2 µM

C[C@]12CCC(OC(=O)CCN3CCOCC3)CC1=CC[C@@H]1[C@@H]2CC[C@]2(C)C(=O)CC[C@@H]12 (stereo partly drawn) [Compound 28, (8R,9S,10R,13S,14S)-10,13-dimethyl-17-oxo-2,3,4,7,8,9,10,11,12,13,14,15,16,17-tetradecahydro-1H-cyclopenta[a]phenanthren-3-yl 3-morpholinopropanoate]
activity at 20 µM [4]: 42%
activity at 1 µM [5]: 37.8%
IC50 (E0771-SULT cells): 6.3 µM

COC(=O)C1CCCN1C(=O)CCC(=O)OCC(=O)C1(OC(C)=O)CCC2C3CCC4=CC(=O)CCC4(C)C3CCC21C [Compound 18, methyl (4-(2-8((8R,9S,10R,13S,14S,17R)-17-acetoxy-10,13-dimethyl-3-oxo-2,3,6,7,8,9,10,11,12,13,14,15,16,17-tetradecahydro-1H-cyclopenta[a]phenanthren-17-yl)-2-oxoethoxy)-4-oxobutanoyl)-L-prolinate]
activity at 10 µM [1]: 60.6%
activity at 10 µM [2]: 71.7%
activity at 20 µM [3]: 54.8%
IC50: 16 µM

C[C@H](CCC(=O)N1CCOCC1)[C@H]1CC[C@H]2[C@@H]3CC=C4C[C@H](n5cc(CN(C)C)nn5)CC[C@]4(C)[C@H]3CC[C@]12C [Compound 13, (R)-4-((3R,8S,9S,10R,13R,14S,17R)-3-(4-((dimethylamino)methyl)-1H-1,2,3-triazol-1-yl)-10,13-dimethyl-2,3,4,7,8,9,10,11,12,13,14,15,16,17-tetradecahydro-1H-cyclopenta[a]phenanthren-17-yl)-1-morpholinopentan-1-one]
activity at 20 µM [3]: 65.8%

C#CCOCCOCCNC(=O)CC[C@@H](C)[C@H]1CC[C@H]2[C@@H]3CC=C4C[C@@H](OS(=O)(=O)O)CC[C@]4(C)[C@H]3CC[C@]12C [Compound 23, (3S,8S,9S,10R,13R,14S,17R)-10,13-dimethyl-17-((R)-5-oxo-5-((2-(2-(prop-2-yn-1-yloxy)ethoxy)ethyl)amino)pentan-2-yl)-2,3,4,7,8,9,10,11,12,13,14,15,16,17-tetradecahydro-1H-cyclopenta[a]phenanthren-3-yl sulfate]
activity at 20 µM [3]: 70.1%

C#CC1(OC(C)=O)CCC2C3CCC4=CC(=O)CCC4C3CCC21C (stereo not drawn) [Compound 30, 19-norethisterone-acetate, reference compound]
activity at 20 µM [6]: 61.9%
activity at 1 µM [7]: 80.1%
IC50 (E0771-SULT cells): 34.3 µM

C#CCOCCOCCOCCOCCNC(=O)CC[C@@H](C)[C@H]1CC[C@H]2[C@@H]3CC=C4C[C@@H](OS(=O)(=O)O)CC[C@]4(C)[C@H]3CC[C@]12C [Compound 25, (3S,8S,9S,10R,13R,14S,17R)-10,13-dimethyl-17-((R)-17-oxo-4,7,10,13-tetraoxa-16-azahenicos-1-yn-20-yl)-2,3,4,7,8,9,10,11,12,13,14,15,16,17-tetradecahydro-1H-cyclopenta[a]phenanthren-3-yl sulfate]
activity at 20 µM [3]: 60.1%

C[C@H](CCC(=O)N1CCOCC1)[C@H]1CC[C@H]2[C@@H]3CC=C4C[C@@H](O)CC[C@]4(C)[C@H]3CC[C@]12C [Compound 11, (R)-4-((3S,8S,9S,10R,13R,14S,17R)-3-hydroxy-10,13-dimethyl-2,3,4,7,8,9,10,11,12,13,14,15,16,17-tetradecahydro-1H-cyclopenta[a]phenanthren-17-yl)-1-morpholinopentan-1-one]
activity at 20 µM [3]: 87.4%

C#CC1(O)CCC2C3CCC4=CC(=O)CCC4C3CCC21C (stereo not drawn) [Compound 31, 19-norethindrone, reference compound]
activity at 20 µM [6]: 77.5%
activity at 1 µM [7]: 82.8%
IC50 (E0771-SULT cells): 68.4 µM

CC(CCC(=O)N1CCSCC1)C1CCC2C3CC=C4CC(O)CCC4(C)C3CCC12C [Compound 9, (R)-4-((3S,8S,9S,10R,13R,14S,17R)-3-hydroxy-10,13-dimethyl-2,3,4,7,8,9,10,11,12,13,14,15,16,17-tetradecahydro-1H-cyclopenta[a]phenanthren-17-yl)-1-thiomorpholinopentan-1-one]
activity at 20 µM [3]: 87.2%
